Results published in PubChem BioAssay AID467 (The Scripps Research Institute Molecular Screening Center, 2006).
The source made the active and inactive calls. No rule for the calls is given here.

Tested on: parental cell line counter screen, S1P1 agonist assay readout
Assay: signal in parental cells, counter-screen for S1P1 agonist project (AID 467);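 also: agonist potency measured against forskolin stimulation plus an EC20 level of SEW2871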

`Cc1nn(Cc2ccccc2)c(C)c1C(=O)OCC(=O)c1cc(C)n(C2CC2)c1C` was tested, and the EC50 was > 30 µM (inactive).
In the case of `OC1(c2cccc(C(F)(F)F)c2)CCN(c2ncnc3c2[nH]c2ccc(F)cc23)CC1`, the EC50 is reported as > 3 µM (inactive).
In the case of `COC(=O)c1ccc(OCC(O)Cn2nnc3ccccc32)cc1` (centres undefined), the EC50 is reported as > 95.1 µM (inactive).
`CCOc1ccc(-c2nc(-c3ccncc3)no2)cc1OCC` was tested, and the EC50 was > 95.1 µM (inactive).
`CCSc1nnc(NC(=O)C(Cc2ccccc2)n2cccc2)s1` (centres undefined) was tested, and the EC50 was > 95.1 µM (inactive).
`CCc1ccc2oc(-c3cc(N)cc(C)c3O)nc2c1` was tested, and the EC50 was > 95.1 µM (inactive).
In the case of `CCOc1cc(-c2noc(-c3cccnc3)n2)ccc1OC`, the EC50 is reported as > 95.1 µM (inactive).
`COCCN(C(=O)c1ccccc1)c1nnc(-c2cccnc2)s1` was tested, and the EC50 was > 95.1 µM (inactive).
With `COc1ccc2c(c1)CCc1c(C(=O)Nc3ccc(OC)c(OC)c3)noc1-2` the EC50 was > 95.1 µM (inactive).
For `c1ccc(C(Cc2nc(-c3cccnc3)no2)c2ccccc2)cc1`, the EC50 was > 95.1 µM (inactive).
With `CC1CCc2nc(NC(=O)CSc3nc4ccccc4o3)sc2C1` (centres undefined) the EC50 was > 95.1 µM (inactive).
`N#C/C(=C/c1ccc(N2CCCCCC2)o1)c1ccc(F)cc1` showed an EC50 of 4.4 µM.
`O=C(c1cc(-c2ccccc2)on1)N1CCN(Cc2ccc3c(c2)OCO3)CC1` was tested, and the EC50 was > 30 µM (inactive).
For `Cc1occc1C(=O)N1CCN(c2ccc(Cl)c(Cl)c2)CC1`, the EC50 was 43.9 µM (inactive).
For `CCCC(=O)c1ccc(N2CCN(C(=O)c3ccccc3Br)CC2)c(F)c1`, the EC50 was 28.2 µM (inactive).
With `O=C(Nc1ccc(Cl)cc1)N1CCC(c2nc(-c3ccc(F)cc3)no2)CC1` the EC50 was 20 µM (inactive).
In the case of `Clc1ccc(OCc2nc(-c3ccncc3)no2)c(Br)c1`, the EC50 is reported as > 30 µM (inactive).
For `Cc1nn(Cc2ccc(Cl)c(Cl)c2)c(C)c1NC(=O)c1cc(-c2ccco2)on1`, the EC50 was 13.2 µM (inactive).
For `Cc1nc(C)c(C(=O)Nc2ccc(Oc3ccccc3)cc2)o1`, the EC50 was > 30 µM (inactive).
In the case of `CCCOc1ccc(-c2nnc(-c3ccncc3)o2)cc1`, the EC50 is reported as > 95.1 µM (inactive).
For `CCN(CC)C(=O)CSC(=Nc1ccccc1F)NC#N`, the EC50 was > 95.1 µM (inactive).
`COc1ccc(N2C(=O)CC(Sc3ncn[nH]3)C2=O)c(OC)c1` (centres undefined) showed an EC50 of 4.91 µM.
`Fc1ccc2[nH]c3c(N4CCSCC4)ncnc3c2c1` was tested, and the EC50 was 11 µM (inactive).
In the case of `c1ccc2c(c1)oc1c(NCc3ccc4c(c3)OCO4)ncnc12`, the EC50 is reported as 38.9 µM (inactive).
For `Clc1ccc(CSc2nnc(-c3ccncc3)o2)cc1`, the EC50 was 86.9 µM (inactive).
In the case of `Clc1ccc(CCNc2ncnc3nc[nH]c23)cc1`, the EC50 is reported as 33.6 µM (inactive).
In the case of `CCN(C1CCCCC1)S(=O)(=O)c1ccc(S(=O)(=O)NCc2ccncc2)cc1`, the EC50 is reported as 76.5 µM (inactive).
`O=S(=O)(NCc1ccncc1)c1ccc(Br)s1` was tested, and the EC50 was > 95.1 µM (inactive).
`CCOC(=O)c1ccc(NC(=O)CCc2nc(-c3ccc(Cl)cc3)no2)cc1` was tested, and the EC50 was > 95.1 µM (inactive).
In the case of `CCc1cc(-c2[nH]ncc2-c2ccc3c(c2)OCO3)c(O)cc1O`, the EC50 is reported as 9.08 µM.
With `COc1ccc(-c2noc(-c3ccccc3F)n2)cc1` the EC50 was > 95.1 µM (inactive).
With `CCCc1ccc(OCc2nc(-c3ccc(NC(=O)c4ccco4)cc3)no2)cc1` the EC50 was > 95.1 µM (inactive).
With `Nc1nonc1C(=O)NCCNCc1cc(Br)ccc1OCc1ccc(F)cc1` the EC50 was 30.5 µM (inactive).
For `COCCn1c(C)cc(C(=O)CSc2nc3ccccc3o2)c1C`, the EC50 was > 95.1 µM (inactive).
In the case of `CCCn1c(NC(=O)c2cccc(S(=O)(=O)N3CCCC3)c2)nc2ccccc21`, the EC50 is reported as 10.4 µM (inactive).
`O=C(Nc1ccc(-c2noc(CCc3ccccc3)n2)cc1)c1cccnc1` was tested, and the EC50 was > 30 µM (inactive).
In the case of `OC(c1cccc(OCc2ccccc2)c1)c1nnc(-c2ccccc2)o1` (centres undefined), the EC50 is reported as > 30 µM (inactive).
In the case of `C/C(N)=C(/C#N)C(=O)CSc1nc2cc(Cl)ccc2s1`, the EC50 is reported as 49.5 µM (inactive).
For `N#Cc1nc(-c2ccc(OCc3ccccc3)cc2)oc1NCc1cccnc1`, the EC50 was > 95.1 µM (inactive).
In the case of `O=C(Oc1cccc(C(=O)N2CCOCC2)c1)c1ccc(Br)cc1`, the EC50 is reported as > 95.1 µM (inactive).
With `CC1=CC(C)(C)Nc2ccc(OC(=O)c3ccco3)cc21` the EC50 was > 3 µM (inactive).
For `CS(=O)(=O)n1nc(OC(=O)c2cccc3ccccc23)cc1N`, the EC50 was 12 µM (inactive).
For `Cc1cc(N2CCN(C/C=C/c3ccccc3)CC2)n2ncnc2n1`, the EC50 was > 95.1 µM (inactive).
`Cc1nn(Cc2ccc(Cl)c(Cl)c2)c(C)c1NC(=O)c1cc(CC(C)C)on1` was tested, and the EC50 was 23.8 µM (inactive).
With `Cc1[nH]nc2c1C1(C(=O)N(Cc3ccc(Cl)cc3)c3ccccc31)C(C#N)=C(N)O2` (centres undefined) the EC50 was > 30 µM (inactive).
In the case of `O=S(=O)(CCSc1ccccn1)c1nc2ccccc2s1`, the EC50 is reported as 4.71 µM.
With `CCN(CC)C(=O)Oc1ccc2c(=O)c(-c3ccccc3)coc2c1` the EC50 was > 95.1 µM (inactive).
In the case of `CCCC(=O)N1CCN(c2ccc(NC(=O)c3cc4ccccc4o3)cc2Cl)CC1`, the EC50 is reported as 10.8 µM (inactive).
`O=C(CSC1=NCCS1)Nc1ccnc2ccccc12` was tested, and the EC50 was 11.1 µM (inactive).
In the case of `CCc1ccc(-c2nc(CSCC(=O)N3CCN(c4ccccn4)CC3)c(C)o2)cc1`, the EC50 is reported as 18.7 µM (inactive).
In the case of `O=S(=O)(NCc1cn2ccsc2n1)c1ccc(Oc2ccccc2)cc1`, the EC50 is reported as 45.3 µM (inactive).
With `CC(=O)c1ccc(NC(=O)N2CCN(c3cccc(Cl)c3)CC2)cc1` the EC50 was > 30 µM (inactive).
`Cc1cc(C(=O)CSc2nnc(-c3cccnc3)n2-c2ccccc2F)c(C)n1C` was tested, and the EC50 was > 95.1 µM (inactive).
`CCOc1ccc(-c2noc(-c3ccncc3)n2)cc1OCC` was tested, and the EC50 was > 95.1 µM (inactive).
For `Cc1cc(/C=c2/sc3nc4ccccc4n3c2=O)c(C)n1-c1ccccn1`, the EC50 was > 95.1 µM (inactive).
For `Cc1ccc2c(c1)[nH]c1c(N3CCN(Cc4ccccc4)CC3)ncnc12`, the EC50 was 7.72 µM.
With `COC(=O)c1cc(NCc2ccccc2F)ccc1N1CCOCC1` the EC50 was > 95.1 µM (inactive).
For `CN1c2ccccc2C(C)(C)C12C=Cc1cc(O)ccc1O2` (centres undefined), the EC50 was > 10 µM (inactive).
For `COc1ccc(N2CCn3c2nc2c3c(=O)n(CCCc3ccccc3)c(=O)n2C)c(OC)c1`, the EC50 was > 10 µM (inactive).
For `c1ccc(N2CCN(Cc3ccnc4ccccc34)CC2)cc1`, the EC50 was 47.9 µM (inactive).
With `Cc1nc2sccn2c1-c1csc(NCc2ccccc2)n1` the EC50 was 20 µM (inactive).
For `O=C(Nc1ccc(N2CCOCC2)c(Cl)c1)c1cccc(F)c1`, the EC50 was > 95.1 µM (inactive).
In the case of `CCCc1cc(C(=O)Nc2sc(C)c(CC)c2C#N)no1`, the EC50 is reported as > 95.1 µM (inactive).
`CCOc1ccccc1COC(=O)c1cccc(-n2cnnn2)c1` was tested, and the EC50 was > 95.1 µM (inactive).
For `Cc1noc(/C=C/N(C)C)c1S(=O)(=O)N1CCN(c2ccccc2)CC1`, the EC50 was > 95.1 µM (inactive).
For `CN(CC1CCCO1)S(=O)(=O)c1ccc(C(=O)Nc2nc(-c3ccccn3)cs2)cc1` (centres undefined), the EC50 was > 30 µM (inactive).
For `CCCCOc1ccc(S(=O)(=O)Nc2cc(OC)ccc2OC)cc1`, the EC50 was > 30 µM (inactive).
For `Nc1nonc1C(=O)NCCNCc1cc(Br)ccc1OCc1ccccc1F`, the EC50 was 28.9 µM (inactive).
`Cn1ncnc2c(=O)n(C)c(=O)nc1-2` was tested, and the EC50 was 1.8 µM.
`Nn1c(Nc2ccccc2)nc2sc3c(c2c1=O)CCC3` was tested, and the EC50 was > 30 µM (inactive).
With `C=CCn1c(C)cc(C(=O)CSc2nc3ccccc3o2)c1C` the EC50 was > 30 µM (inactive).
For `CCOc1ccc(C(=O)Nc2ccc(Cl)cn2)cc1Cl`, the EC50 was > 95.1 µM (inactive).
`Fc1ccc2[nH]c3c(N4CCN(c5ccccc5)CC4)ncnc3c2c1` was tested, and the EC50 was 18.5 µM (inactive).
With `CCc1oc2ccccc2c1C(=O)c1cc(Br)c(O)c(Br)c1` the EC50 was 13.5 µM (inactive).
